One assay has as its system Jurkat and THP-1 cells. Briefly: TNFα secretion by PMA/PHA induced Jurkat and THP-1 cells. The format is cell-based, human. Conditions: peptide 1 μg/ml; 48 hours; ELISA. The procedure:
Jurkat cells human T cell lymphoma line) (2×10^6 cells/ml) cultured in RPMI-1640 supplemented with 10% FCS were activated with PMA (50 ng/ml) and phytohaemagglutinin PHA (4 µg/ml) for 6 hours at 37° C. (7.5% CO2-humidified atmosphere). Thereafter, the cells were washed, plated on 24-well plates (10^6 cells/well in 0.5 ml), and incubated (1 hour at 37° C., 7.5% CO2-humidified atmosphere) with the indicated concentrations of peptides 1-5. Following the incubation, THP-1 cells (human monocytic cell line derived from a patient with acute monocytic leukaemia; 1.25×10^5 cells/0.5 ml/well) were added to the wells. After 48 hours, the supernatants were collected and their TNF[…] content was determined by ELISA using anti TNF[…] mAb (Pharmingen; San Diego, Calif.) according to the manufacturer's instructions.
In general terms: An ELISA detects its analyte on a solid surface through an enzyme-linked reagent.

The test system of another assay is BALB/C mice. Briefly: TNBS-induced colitis model of inflammatory bowel disease (IBD). The format is in vivo, mouse. To be noted: 50 μg/mouse SC daily; day 7 after TNBS. The protocol: BALB/C mice, which were anesthetized for 5-10 min, received by intrarectal administration, 30 μl of a solution of 2,4,6-trinitrobenzene sulfonic acid (TNBS; 100 mg/kg) dissolved in 0.9% NaCl and mixed with an equal volume of ethanol (50% ethanol). Animals were killed 7 days after TNBS administration.
Wound fluid peptides were administered once daily by subcutaneous (SC) administration starting 1 day before the induction of colitis and every day for the next 7 days as follows:
Treatment with the wound fluid peptides was evaluated at day 7 by determination of macroscopic inflammation scores. The colon of each mouse was examined under a dissecting microscope to evaluate the macroscopic lesions according to the Wallace criteria. The Wallace score lists macroscopic colon lesions on a scale from 0 to 10 based on features reflecting inflammation, such as hyperemia, thickening of the bowel, and extent of ulceration (Wallace, J. L., et al. 1989, Gastroenterology, 96:29).

Assay [1] deals with lymph node cells of oxazalone-sensitized mice transferred to syngeneic recipient mice. The assay can be described thus: Adoptive transfer DTH assay. It is filed as in vivo, mouse. Conditions: lymph node cells incubated 20 hours with peptide (10 rig/ml), injected i.v. to recipient mice; ear swelling after 24 hours. The procedure: Female inbred BALB/c mice (The Jackson Laboratory, Bar Harbor, Me.) were sensitized on the shaved abdominal skin with 2% oxazalone (100 μl) dissolved in acetone/olive oil [4:1 (vol/vol)]. Two donor mice were sensitized for one recipient mouse. On day 5, lymph nodes were removed and single-cell suspensions of lymph node cells were prepared. Lymph node cells were incubated (20 hours) with either peptide No. 3 or peptide No. 5 (10 rig/ml) in RPMI 1640 containing 10% FCS. After the incubation, the cells were washed, resuspended with PBS and injected intravenously (40 million cells per mouse) to syngeneic recipient mice. The mice were immediately challenged with 0.5% oxazalone in acetone/olive oil (10 μl given topically to each side of the ear) to elicit DTH reactions. The increment of ear swelling was measured after 24 hours.

Turning to “WDNLEKETEGL [peptide No. 3, residues 96-106 of Apo A-I; identified in wound fluids, then synthesized]”, the “inhibition of TNFα secretion by Jurkat and THP-1 cells compared to PMA/PHA alone” value in the assay on Jurkat and THP-1 cells is listed as 50%. Besides, in the assay on BALB/C mice, the “Wallace score (macroscopic inflammation score, scale 0 to 10)” value is recorded as 4.0±1.3. Further, the “inhibition of adoptive transfer DTH response” value in assay [1] was 80%.

The values are drawn from US20080311103A1, “Anti-Inflammatory Peptides and Methods of Use Thereof” (YEDA RESEARCH AND DEVELOPMENT CO. LTD. at THE WEIZMANN …, priority 2004, published 2008).
